Drawing on BindingDB's records for PubMed 1646322 (Mayo Clinic, 1991), this text covers Ki for five compounds.

Test [1] has as its target T1, Muscarinic acetylcholine receptor M4 (Rattus norvegicus, UniProt P08485).
T1 sequence (P08485 whole entry): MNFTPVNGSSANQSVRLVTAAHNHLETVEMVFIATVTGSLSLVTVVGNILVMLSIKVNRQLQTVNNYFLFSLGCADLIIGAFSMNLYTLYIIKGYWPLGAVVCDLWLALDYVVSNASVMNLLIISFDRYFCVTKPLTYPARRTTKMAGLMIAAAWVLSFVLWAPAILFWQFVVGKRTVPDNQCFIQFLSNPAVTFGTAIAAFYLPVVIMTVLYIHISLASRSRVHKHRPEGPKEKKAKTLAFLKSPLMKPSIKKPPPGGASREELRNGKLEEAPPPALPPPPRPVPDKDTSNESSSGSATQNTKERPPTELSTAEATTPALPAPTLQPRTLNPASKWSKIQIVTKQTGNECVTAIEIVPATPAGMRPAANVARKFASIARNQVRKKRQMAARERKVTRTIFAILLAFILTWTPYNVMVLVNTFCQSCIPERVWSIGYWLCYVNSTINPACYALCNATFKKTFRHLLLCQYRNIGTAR

The target in test [2] is T2, Muscarinic acetylcholine receptor M1 (Rattus norvegicus, UniProt P08482).
T2 sequence (P08482 whole entry): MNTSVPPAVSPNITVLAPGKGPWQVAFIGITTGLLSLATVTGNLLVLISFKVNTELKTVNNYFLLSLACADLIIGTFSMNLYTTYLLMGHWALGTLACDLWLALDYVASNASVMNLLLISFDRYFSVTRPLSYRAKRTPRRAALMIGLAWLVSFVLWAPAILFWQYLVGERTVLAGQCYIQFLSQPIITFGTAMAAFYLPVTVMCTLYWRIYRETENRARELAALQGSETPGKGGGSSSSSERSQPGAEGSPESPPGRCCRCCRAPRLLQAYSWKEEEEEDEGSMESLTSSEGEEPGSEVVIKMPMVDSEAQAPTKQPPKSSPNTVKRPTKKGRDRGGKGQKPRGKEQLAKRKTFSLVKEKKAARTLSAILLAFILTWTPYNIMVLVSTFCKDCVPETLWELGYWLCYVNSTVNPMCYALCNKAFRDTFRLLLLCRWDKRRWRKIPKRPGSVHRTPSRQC

One may read the Ki as a dissociation constant, usually derived from enzyme kinetics or from competition with a known ligand. `C[N+]1(C)CCC(OC(=O)C(c2ccccc2)c2ccccc2)CC1` returned a Ki in test [1] of 1.4 nM.
Turning to `CCN(CC)CC1CCCCN1CC(=O)N1c2ccccc2C(=O)Nc2cccnc21` (stereo not drawn) [(AF-DX 116) 11-[2-(2-Diethylaminomethyl-piperidin-1-yl)-acetyl]-5,11-dihydro-benzo[e]pyrido[3,2-b][1,4]diazepin-6-one], the values for the Ki in test [1] and in test [2] were 614 nM and 1200 nM, respectively.
On to `O[Si](CCCN1CCCCC1)(c1ccccc1)C1CCCCC1` (stereo not drawn) [HHSiD], for which the Ki in test [1] was determined as 47 nM; in test [2] it was 60 nM.
In turn, `COc1ccccc1CNCCCCCCNCCCCCCCCNCCCCCCNCc1ccccc1OC` [METHOCTRAMINE] returned a Ki in test [1] of 410 nM.
`CCN(CCCC(=O)C1CCCCC1)C(C)Cc1ccc(OC)cc1` (stereo not drawn) [NSC_42470]: the Ki stood at 7.8 nM in test [1] and 5.9 nM in test [2].
